# Where a SMILES comes first, the peptide text is derived from it. Where no end group is shown, it is not given here. The star is where a group is joined. Myristoyl = CCCCCCCCCCCCCC(=O)*
# T1: rat PrRP receptor (GPR10) in RC-4B/C cells (Rattus norvegicus, UniProt Q64121)
# T1 construct: The rat pituitary cell line RC-4B/C (ATCC, Manassas, USA) was grown on 24-well plates; host or cells: RC-4B/C rat pituitary cell line
# T1 sequence (Q64121 1-370): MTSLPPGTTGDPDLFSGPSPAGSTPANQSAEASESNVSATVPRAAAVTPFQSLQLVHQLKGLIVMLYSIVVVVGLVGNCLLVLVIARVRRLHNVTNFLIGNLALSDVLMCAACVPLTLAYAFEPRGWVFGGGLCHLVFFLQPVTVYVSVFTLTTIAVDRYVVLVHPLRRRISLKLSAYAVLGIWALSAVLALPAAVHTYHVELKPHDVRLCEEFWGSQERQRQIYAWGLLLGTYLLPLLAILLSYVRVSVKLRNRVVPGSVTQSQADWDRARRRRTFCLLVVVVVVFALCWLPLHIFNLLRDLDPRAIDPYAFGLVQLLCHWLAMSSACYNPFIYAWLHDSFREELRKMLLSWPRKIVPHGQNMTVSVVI
# T2: rat PrRP receptor in RC-4B/C cells (rat, UniProt Q64121 1-370)
# T2 construct: whole, on cells; also called the rat receptor; GPR10
# T2 sequence (looked up): T1 sequence (Q64121 1-370)
# T3: human PrRP receptor, GPR10, transfected in CHO cells (human, UniProt P49683 1-370)
# T3 construct: whole, on cells; also called human GPR10 receptor; the human receptor GPR10 in CHO cells
# T3 sequence (looked up): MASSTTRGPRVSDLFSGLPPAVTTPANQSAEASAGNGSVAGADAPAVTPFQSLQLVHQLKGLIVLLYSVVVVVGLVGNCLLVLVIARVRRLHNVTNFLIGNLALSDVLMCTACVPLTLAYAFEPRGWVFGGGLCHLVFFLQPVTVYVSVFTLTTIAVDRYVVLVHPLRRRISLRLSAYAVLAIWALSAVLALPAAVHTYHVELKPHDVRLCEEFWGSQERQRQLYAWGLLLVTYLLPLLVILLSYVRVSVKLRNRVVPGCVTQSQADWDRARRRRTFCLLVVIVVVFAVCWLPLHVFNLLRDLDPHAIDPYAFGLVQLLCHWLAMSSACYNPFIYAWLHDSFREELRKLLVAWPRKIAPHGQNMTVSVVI
# B1: myristoylated human PrRP20 (analog no. 55) (peptide)
# peptide: Myristoyl-TPDINPAWYASRGIRPVGRF-NH2
# SMILES: CCCCCCCCCCCCCC(=O)N[C@H](C(=O)N1CCC[C@H]1C(=O)N[C@@H](CC(=O)O)C(=O)N[C@H](C(=O)N[C@@H](CC(N)=O)C(=O)N1CCC[C@H]1C(=O)N[C@@H](C)C(=O)N[C@@H](Cc1c[nH]c2ccccc12)C(=O)N[C@@H](Cc1ccc(O)cc1)C(=O)N[C@@H](C)C(=O)N[C@@H](CO)C(=O)N[C@@H](CCCNC(=N)N)C(=O)NCC(=O)N[C@H](C(=O)N[C@@H](CCCNC(=N)N)C(=O)N1CCC[C@H]1C(=O)N[C@H](C(=O)NCC(=O)N[C@@H](CCCNC(=N)N)C(=O)N[C@@H](Cc1ccccc1)C(N)=O)C(C)C)[C@@H](C)CC)[C@@H](C)CC)[C@@H](C)O
# notes: also called analog no; 13
# Tests used:
# fasted C57BL/6 mice [1] = test: Food intake in fasted mice after SC administration; assay type: in vivo, mouse; details: for food intake / % control: SC administration, dose not stated for these substances; for % control: food intake vs saline
# Summary of the method: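 Male C57BL/6 mice, food-deprived 17 h, received saline, PrRP or lipidated analogs either SC at 1-10 mg/kg or ICV into the third ventricle at 4 nmol/mouse.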
# Rhesus monkey = assay type: in vivo; details: single SC 1.0 mg/kg or 2.0 mg/kg, overnight fasted, between 1-6 hours, vs saline
# Description: Food intake (amount of pellets consumed) was measured in Rhesus monkey (n=4) after a single subcutaneous administration of myristoylated human PrRP20 (analog no. 55).
# The study was conducted on overnight fasted animals in Meditox breeding facility (Konárovice, Czech Republic). Each animal received a subcutaneous injection of saline, or of analog 55 in a dose of 1.0 mg/kg or 2.0 mg/kg. Test item formulation was prepared in saline solution as a fresh solution, just before dosing. […] Food intake monitoring was performed 2, 4, 8 and 24 hours after single administration. […] While preferred embodiments of the present invention have been shown and described herein, it will be obvious to those skilled in the art that such embodiments are provided by way of example only. Numerous variations, changes, and substitutions will now occur to those skilled in the art without departing from the invention. It should be understood that various alternatives to the embodiments of the invention described herein may be employed in practicing the invention. It is intended that the following claims define the scope of the invention and that methods and structures within the scope of these claims and their equivalents be covered thereby.
# [2] = target: T1, rat PrRP receptor (GPR10) in RC-4B/C cells; details: Maletínská et al., 2011; cited from earlier work
# [3] = target: T1, rat PrRP receptor (GPR10) in RC-4B/C cells; test: Competitive binding to rat pituitary RC-4B/C cells; details: ^125I-rat PrRP31, RC-4B/C cells
# [4] = tested on: MAPK/ERK1/2 signaling pathway in RC-4B/C cells; test: MAPK/ERK1/2 signaling in RC-4B/C cells (Western blot); assay type: cell-based, rat; details: 10^−6 mol·l^−1, 5 minute incubation
# fasted C57BL/6 mice [5] = test: Food intake in fasted mice after ICV administration; assay type: in vivo; details: 4 nmol/mouse; for % control: food intake vs saline
# Description: Male C57BL/6 mice (An Lab, Prague 4) were bred in the accredited animal facility in the Institute of Organic Chemistry and Biochemistry, Czech Academy of Sciences, Prague, at the Institute of Molecular Genetics, Prague 4, at the temperature of 22±2° C. with access to food and water ad libitum. The day/night cycle was 12/12 hours (light turned on at 6:00 am). Animals were treated according to the Animal Protection Act (Act No. 246/1992). The males were fed standard chow diet St-1 (Mlýn Kocanda, Praha, Czech Republic) which contained 66% saccharides, 25% proteins and 9% lipids with a caloric value of 3.4 kcal/g.
# The food was withdrawn 17 hours prior to injection of lipidated peptide and free access to water was maintained. The administration of saline, PrRP or lipidated analogs was performed either by SC injection at doses of 1-10 mg/kg (volume 0.2 ml/mouse), or by ICV using infusion pump (cannulae were inserted into the third brain ventricle 4 days before the experiment following the procedure of Maixnerová et al. (Maixnerová et al., 2011)). The single dose of peptide was 4 nmol/mouse (5 μl/mouse).
# Fifteen minutes after the lipidated peptide administration, the mice were given pre-weighed food. The food was then weighed every 30 minutes for 5-10 hours. The administration of every dose was performed at least twice and one group of mice consisted of at least 6 mice. The results were presented as % of food intake as compared with the control group injected with saline.
# Statistical evaluation was performed using program Graph-Pad Prism Software (San Diego, Calif., USA), and the one-way ANOVA with a subsequent Dunnettovým post-hoc test. The difference in food intake between mice injected with saline and mice injected with the examined peptide were considered statistically significant at P<0.05.
# rats = details: ICV, third brain ventricle, Lawrence et al.; cited from earlier work
# fasted C57BL/6 mice [6] = details: central administration, Maixnerová et al., 2011; cited from earlier work
# [7] = target: T2, rat PrRP receptor in RC-4B/C cells; test: competition with 125I-rat PrRP31 on RC-4B/C cells
# [8] = target: T2, rat PrRP receptor in RC-4B/C cells; test: competition with 125I-rat PrRP31 on RC-4B/C cells; Ki by Cheng-Prusoff
# Description: The rat pituitary cell line RC-4B/C (ATCC, Manassas, USA) was grown on 24-well plates which had their bottom coated with polyethyleneimine. The cells were grown to the optimal density of 300-450 thousand per well.
# Plates were incubated for 60 minutes at room temperature. After incubation, the cells were solubilized in 0.1 mol/l solution of NaOH and the radioactivity bound to the cells was counted using a γ-counter. The experiments were performed in duplicate and repeated at least three times.
# [9] = target: T2, rat PrRP receptor in RC-4B/C cells; test: competition with 125I-human PrRP31 on RC-4B/C cells; Ki by Cheng-Prusoff
# [10] = target: T3, human PrRP receptor, GPR10, transfected …; test: competition with 125I-human PrRP31 on CHO cells with transfected human GPR10
# Summary of the method: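 Incubation lasted 60 min at room temperature. Cells were then solubilised in 0.1 mol/l NaOH and bound radioactivity γ-counted; duplicates, at least three repeats.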
molecule,measurement,setting,value
CCCCCCCCCCCCCC(=O)N[C@H](C(=O)N1CCC[C@H]1C(=O)N[C@@H](CC(=O)O)C(=O)N[C@H](C(=O)N[C@@H](CC(N)=O)C(=O)N1CCC[C@H]1C(=O)N[C@@H](C)C(=O)N[C@@H](Cc1c[nH]c2ccccc12)C(=O)N[C@@H](Cc1ccc(O)cc1)C(=O)N[C@@H](C)C(=O)N[C@@H](CO)C(=O)N[C@@H](CCCNC(=N)N)C(=O)NCC(=O)N[C@H](C(=O)N[C@@H](CCCNC(=N)N)C(=O)N1CCC[C@H]1C(=O)N[C@H](C(=O)NCC(=O)N[C@@H](CCCNC(=N)N)C(=O)N[C@@H](Cc1ccccc1)C(N)=O)C(C)C)[C@@H](C)CC)[C@@H](C)CC)[C@@H](C)O [Analog 55] (Myristoyl-TPDINPAWYASRGIRPVGRF-NH2),Food intake in mice (5 mg/kg SC) % saline-treated group (45 min),"fasted C57BL/6 mice [1]; fasted C57BL/6 mice, 5 mg/kg SC, 45 min",10%
same,Food intake (amount of pellets consumed),Rhesus monkey,Significantly lower food intake
"[Tyr^31]PrRP20: N-acetylated PrRP20 analog, C-terminal phenylalanine replaced by tyrosine (Maletínská et al., 2011) (Ac-TPDINPAWYASRGIRPVGRY-NH2; ends and bridges not checked; UniProt P81277 34-53, looked up, variant F31Y)",Kb of binding to the pituitary cell line RC-4B/C,[2],comparable to values for PrRP31 and PrRP20
"SRAHQHSMETRTPDINPAWYTGRGIRPVGRF-NH2 [PrRP31, reference compound]",% of PrRP31 binding,[3],100%
same,ERK signaling,[4],agonist
same,food intake,fasted C57BL/6 mice [1]; 45 minutes,0.32 g
same,% control,fasted C57BL/6 mice [1]; 45 minutes,100%
same,food intake,fasted C57BL/6 mice [1]; 300 minutes,1.15 g
same,% control,fasted C57BL/6 mice [1]; 300 minutes,105%
same,food intake,fasted C57BL/6 mice [5]; 45 minutes,0.42 g
same,% control,fasted C57BL/6 mice [5]; 45 minutes,75%
same,food intake,fasted C57BL/6 mice [5]; 300 minutes,1.37 g
same,% control,fasted C57BL/6 mice [5]; 300 minutes,104%
same,food intake in rats,rats,significant lowering of food intake
"PrRP13: tridecapeptide PrRP13 (containing amino acids 18 to 31 of PrRP31) (AWYASRGIRPVGRF; ends and bridges not checked; UniProt P81277 40-53, looked up, fragment)",anorexigenic activity in mice,fasted C57BL/6 mice [6],not sufficient for maintaining the anorexigenic activity
B1,Ki,[7],0.48 nM
same,Ki,[8],0.41 nM
same,Ki,[9],0.66 nM
same,Ki,[10],4.33 nM

# From patent US9937235B2, “Lipidated peptides as anti-obesity agents” (USTAV ORGANICKE CHEMIE A BIOCHEMIE AKADEMIE VED CR, V.V.I, priority 2012, dated 2018)
